Entries after “also recorded” stand apart in the source; their conditions may differ.
Key:
[1] = test system: 3T3-L1 adipocytes; test: In vitro cytokine measurement (real time PCR of transcripts) in adipocytes; type: cell-based, mouse; settings: salmeterol 0.5 μM or CL316243 0.3 μM, 1 hr treatment; normalized to GAPDH
Protocol: Cell growth media consisted of Dulbecco's modified Eagle's medium supplemented with 10% heat-inactivated fetal bovine serum (Sigma, St. Louis, Mo., U.S.A.) and 1× penicillin-streptomycin (Gibco, Carlsbad, Calif., U.S.A.). Cells were maintained in a humidified atmosphere of 95% air and 5% CO2.
Two days after reaching confluence in growth media, adipogenesis was induced by incubating cells in growth media containing 0.25 μM dexamethasone (Sigma), 0.5 mM IBMX (Sigma), and 1 μM insulin (Sigma). After an additional 2 days in growth media containing 1 μM insulin, cells were grown for 6-8 days in normal growth media.
Total RNA was isolated using the RNeasy Mini Kit (Qiagen, Valencia, Calif., U.S.A.). RNA was then treated with 2 units of DNase I (Ambion, Austin, Tex., U.S.A.) at 37° C. for 30 min. Reverse transcription was performed according to the manufacturer's instructions. Briefly, the reverse transcription reaction mixture consisted of 1 μg DNase 1-treated RNA, 500 ng oligo-dT12-18, 10 mM dNTP, 40 units RNasin (Promega, Madison, Wis., U.S.A.), and 200 units of reverse transcriptase SUPERSCRIPT III™ (Invitrogen, Carlsbad, Calif., U.S.A.). cDNA synthesis was carried out at 50° C. for 1 hr followed by inactivation of reverse transcriptase at 70° C. for 15 min.
Mouse macrophages (RAW 264.7) and […] preadipocytes (3T3-L1) were obtained from the University of North Carolina Tissue Culture Facility. Cell maintenance and 3T3-L1 preadipocyte differentiation is described herein below. For pharmacological experiments, cells were seeded at a density of 5×10^5 cells/well in a 12-well plate (Corning). Total RNA was isolated and reverse transcribed as described in the supplementary materials. TNFα, IL-1β, and IL-6 transcripts were quantitated in quadruplicate by real time polymerase chain reaction using TAQMAN® Gene Expression Assays (Applied Biosystems, Foster City, Calif., U.S.A.) in an ABI PRISM 7000 Sequence Detection System. TNFα, IL-1β, and IL-6 transcript levels were normalized to Glyceraldehyde-3-phosphate dehydrogenase (GAPDH).

[2] = test system: TNFα, IL-1β, and IL-6; test: In vivo plasma cytokine measurement (ELISA); set-up: species or system rat; settings: rats; for plasma levels of IL-1β: OR486 30 mg/kg i.p. or 3% carrageenan i.pl.; for plasma levels of IL-1β / plasma levels of IL-6 / plasma levels of TNFα: relative to vehicle; for plasma levels of IL-6 / plasma levels of TNFα: OR486 or RO41-0960 30 mg/kg i.p., or 3% carrageenan i.pl.
Protocol: Blood was centrifuged and plasma separated from red blood cells. Plasma IL-6 was measured in duplicate using enzyme-linked immunosorbant assay (ELISA) kits from R&D systems (Minneapolis, Minn., U.S.A.). Plasma TNFα and IL-1β were measured in duplicate by the University of North Carolina Proteomics Ilmmunotechnologies Core using ELISA kits from Biosource (Camarillo, Calif., U.S.A.) and the National Institute for Biological Standards and Control (UK), respectively.

[3] = test system: Sprague-Dawley rats; test: Mechanical and thermal pain behavior testing (von Frey monofilaments, radiant heat); type: in vivo, rat; settings: for paw withdrawal frequency to mechanical stimuli (25 g monofilament) / paw withdrawal latency to thermal stimuli / paw withdrawal threshold to mechanical stimuli: OR486 or RO41-0960 30 mg/kg i.p., or 3% carrageenan i.pl.; for paw withdrawal frequency to mechanical stimuli (25 g monofilament) / paw withdrawal latency to thermal stimuli / paw withdrawal threshold to mechanical stimuli / paw withdrawal frequency to mechanical stimuli, antagonist in the absence of OR486 / paw withdrawal latency to radiant heat, antagonist in the absence of OR486 / paw withdrawal threshold to mechanical stimuli, antagonist in the absence of OR486: relative to vehicle; for blockade of OR486-induced hyperalgesia / heightened pain sensitivity: antagonist i.p. prior to OR486; for paw withdrawal frequency to mechanical stimuli, antagonist in the absence of OR486 / paw withdrawal latency to radiant heat, antagonist in the absence of OR486 / paw withdrawal threshold to mechanical stimuli, antagonist in the absence of OR486: i.p. 10 min prior to vehicle, phentolamine 3, propranolol 3, SCH23390 0.2, spiperone 0.2, betaxolol 1.0, ICI118,551 0.5, SR59230A 5 mg/kg
Protocol: Rats were placed in plexiglass cages positioned over an elevated perforated stainless steel platform and habituated to the environment for 15-25 min prior to testing. Paw withdrawal threshold to punctate mechanical stimulation was assessed using the up-down method of Chaplan et al. (1994). A series of nine calibrated filaments (with bending forces of 0.40, 0.68, 1.1, 2.1, 3.4, 5.7, 8.4, 13.2, and 25.0 g; Sammons Preston Rolyan, Bolingbrook, Ill., U.S.A.) with approximately equal logarithmic spacing between stimuli (Mean±SEM: 0.232±0.04 units) were presented to the hind paw in successive order, whether ascending or descending. Filaments were positioned in contact with the hind paw for a duration of 3 s or until a withdrawal response occurred. Testing was initiated with the middle hair of the series (3.4 g). In the absence of a paw withdrawal response, an incrementally stronger filament was presented and in the event of a paw withdrawal, an incrementally weaker filament was presented. After the initial response threshold was crossed, this procedure was repeated four times in order to obtain a total of six responses in the immediate vicinity of the threshold. The presence of paw withdrawal (X) and absence of withdrawal (O) was noted together with the terminal filament used in the series of six responses. The 50% g threshold=(10^[Xf+kδ])/10,000, where Xf=value (in log units) of the final von Frey hair used; k=tabular value of pattern of positive (X) and negative (O) responses, and δ=mean difference (in log units) between stimuli.
Immediately following determination of the response threshold, paw withdrawal frequency (%) to punctate mechanical stimulation was assessed. A von Frey monofilament with a calibrated bending force of 25 g was presented to the hind paw 10 times for a duration of 1 s with an interstimulus interval of approximately 1 s. Mechanical hyperalgesia was defined as an increase in the percentage frequency ([# of paw withdrawals/10]×100) of paw withdrawal evoked by stimulation with von Frey monofilaments.
Thermal hyperalgesia was evaluated using the radiant heat method of Hargreaves et al. (1988) in the same animals evaluated for responsiveness to von Frey monofilaments. Radiant heat was presented through the floor of a finely perforated stainless steel platform to the midplantar region of the hind paw.
After establishing stable baseline responsiveness to mechanical and thermal stimuli, separate groups of rats received intraperitoneal injections of OR486 (30 mg/kg i.p.; N=8) or vehicle (N=8) one hour prior to behavioral testing. Responsiveness to von Frey filaments was reassessed at 30 min intervals for 2 hours. Paw withdrawal latencies to radiant heat were subsequently assessed at 2.5 hours into the testing procedure. Twenty-four hours later, baseline responsiveness to mechanical and thermal stimuli was reestablished. Animals received OR486 (30 mg/kg i.p.) or vehicle (consistent with the previous day). Thirty minutes following administration of drug or vehicle, separate groups of rats received intraplantar carrageenan (N=4 per group) or saline (N=4 per group). Responsiveness to von Frey filaments was reassessed at 30 min intervals for 2 hours following the induction of inflammation. Paw withdrawal latencies to radiant heat were subsequently assessed at 2.5 hours post carrageenan.
Rats were handled and habituated to the testing environment 2-3 days prior to establishing baseline responsiveness. On test days, rats were placed in plexiglass cages positioned over an elevated perforated stainless steel platform and habituated to the environment for 15-20 minutes prior to testing. Paw withdrawal threshold to punctate mechanical stimulation was assessed using the up-down method of Chaplan (Chaplan et al. (1994)). […]

[4] = OR486 30 mg/kg i.p., relative to vehicle or carrageenan in the contralateral non-inflamed paw
[5] = i.p. 10 min prior to OR486, ICI118,551 0.5 or 5.0 mg/kg, SR59230A 5 or 50 mg/kg, betaxolol 0.1, 1.0, 10 mg/kg, relative to vehicle prior to OR486
[6] = propranolol 3 mg/kg i.p. prior to OR486, relative to vehicle prior to OR486
[7] = propranolol 3 mg/kg i.p. 10 minutes prior to OR486, relative to vehicle, phentolamine, SCH23390 or spiperone prior to OR486

Compound	plasma levels of IL-6 [2]	plasma levels of TNFα [2]	paw withdrawal frequency to mechanical stimuli (25 g monofilament) [3]	paw withdrawal latency to thermal stimuli [3]	paw withdrawal threshold to mechanical stimuli [3]	blockade of OR486-induced hyperalgesia / heightened pain sensitivity [3]	paw withdrawal frequency to mechanical stimuli, antagonist in the absence of OR486 [3]	paw withdrawal latency to radiant heat, antagonist in the absence of OR486 [3]	paw withdrawal threshold to mechanical stimuli, antagonist in the absence of OR486 [3]	further results
C[C@H](Cc1ccc2c(c1)OC(C(=O)[O-])(C(=O)[O-])O2)NC[C@H](O)c1cccc(Cl)c1.[Na+].[Na+] [CL316243, disodium (R,R)-5-(2-[{2-(3-chlorophenyl)-2-hydroxyethyl}-amino]propyl)-1,3-benzodioxole-2,2, dicarboxylate]										increase in IL-6 mRNA levels in adipocytes [1]: 28 fold
carrageenan	elevated levels	elevated levels	increased paw withdrawal frequency	decreased paw withdrawal latency	decreased paw withdrawal threshold					plasma levels of IL-1β [2]: elevated levels
O=C(c1cc(O)c(O)c([N+](=O)[O-])c1)c1ccccc1F [RO41-0960]	a trend towards elevated levels	elevated plasma levels	increased paw withdrawal frequency	decreased paw withdrawal latency	decreased paw withdrawal threshold					plasma proinflammatory cytokine production ([2]; RO41-0960 30 mg/kg i.p. vs vehicle, 30 mg/kg): increased cytokine production; also recorded: increases plasma proinflammatory cytokine levels; increase in plasma levels of IL-1β ([2]; RO41-0960 30 mg/kg i.p. vs vehicle, no statistical analysis (sample loss)): 4.5 fold; mechanical and thermal pain sensitivity ([3]; RO41-0960 30 mg/kg i.p.): decreased mechanical and thermal pain sensitivity
O=[N+]([O-])c1cc(O)c(O)c([N+](=O)[O-])c1 [OR486]	elevated plasma levels	elevated plasma levels	increased paw withdrawal frequency	decreased paw withdrawal thresholds; also recorded: decreased paw withdrawal latency	significantly decreased paw withdrawal threshold					plasma levels of IL-1β ([2]; 30 mg/kg): elevated plasma levels; degree of mechanical and thermal hyperalgesia ([3]; OR486 30 mg/kg i.p. compared with carrageenan-induced inflammation of the hindpaw): comparable to that produced by carrageenan-induced inflammation; paw withdrawal frequency to 25 g monofilament, non-inflamed paw [3, 4]: increased paw withdrawal frequency; paw withdrawal latency to thermal stimuli, non-inflamed paw [3, 4]: decreased paw withdrawal latency; paw withdrawal threshold to mechanical stimuli, non-inflamed paw [3, 4]: decreased paw withdrawal threshold
O=C(CCCN1CCC2(CC1)C(=O)NCN2c1ccccc1)c1ccc(F)cc1 [spiperone]						failed to block	failed to affect	failed to affect	failed to affect	
Cc1ccc(N(CC2=NCCN2)c2cccc(O)c2)cc1 [phentolamine]						failed to block	failed to affect	failed to affect	failed to affect	
CC(C)NCC(O)COc1ccc(CCOCC2CC2)cc1 (stereo not shown) [betaxolol]							failed to affect	failed to affect	failed to affect	paw withdrawal latency to radiant heat after OR486, selective βAR antagonists ([3]; i.p. 10 min prior to OR486, ICI118,551 5.0 mg/kg, SR59230A 5 or 50 mg/kg, betaxolol 0.1, 1.0, 10 mg/kg, relative to vehicle prior to OR486): failed to alter; paw withdrawal frequency to mechanical stimuli after OR486, selective βAR antagonists [3, 5]: failed to alter; paw withdrawal threshold to mechanical stimuli after OR486, selective βAR antagonists [3, 5]: failed to alter
CC(C)NCC(O)COc1cccc2ccccc12 (stereo not shown) [propranolol]						completely blocks	failed to affect	failed to affect	failed to affect	plasma levels of IL-1β after OR486 [2, 6]: normalized plasma levels; also recorded: decreased plasma levels; plasma levels of IL-6 after OR486 [2, 6]: normalized plasma levels; also recorded: decreased plasma levels; plasma levels of TNFα after OR486 [2, 6]: normalized plasma levels; also recorded: decreased plasma levels; paw withdrawal frequency to mechanical stimuli after OR486 [3, 7]: normalized; paw withdrawal latency to radiant heat after OR486 [3, 7]: normalized; paw withdrawal threshold to mechanical stimuli after OR486 [3, 7]: normalized
